Measured values taken from paper PMC5725799, “Comparative binding properties of the tau PET tracers THK5117, THK5351, PBB3, and T807 in postmortem Alzheimer brains” (Alzheimer's Research & Therapy, 2017).

System: tau
Assay: ^11C-PBB3 autoradiography and competition on large frozen AD brain sections
Type: binding, human
Parameters: NSP Binding: unit not given here
Protocol: Adjacent sections were used for autoradiography with ^11C-THK5351, ^11C-PBB3, and ^18F-T807. The frozen sections were allowed to reach room temperature, incubated for 30 minutes at room temperature with ^11C-THK5351 (0.4–0.56 nM; […]; specific activity 442–794 GBq/μmol) or for 55 minutes at room temperature with ^18F-T807 (0.04 nM; specific activity 281 GBq/μmol). We used 10 μM unlabeled THK5351, 10 μM unlabeled PBB3, and 10 μM unlabeled T807 to determine the extent of nonspecific binding for each tracer. The sections were rinsed three times for 5 minutes each with cold binding buffer, followed by a quick dip in cold distilled water. The sections were dried and exposed for 1 h (for ^11C-THK5351 and ^11C-PBB3) or for 3 h (^18 F-T807) on a phosphor imaging plate and then read using the BAS-2500 phosphor imager.
For all the autoradiography studies, the regions of interest were drawn manually on the autoradiogram using multigauge software and were used for the semiquantitative analyses. Photostimulated luminescence per square millimeter (PSL/mm^2) was transformed to picomoles per cubic millimeter using a transformation factor that took into account the resolution of the image, the pixel value for the concentration of ligand, and the thickness of the sections: (PSL/mm^2 value)/([pixel value per pmol] × [(resolution/1000)^2] × [cryosection thickness]/1000).

[1] = AD1, Basal ganglia, vs Unlabelled PBB3
[2] = AD1, Basal ganglia, vs Unlabelled T807
[3] = AD1, Frontal cortex, vs Unlabelled PBB3
[4] = AD1, Frontal cortex, vs Unlabelled T807
[5] = AD1, Frontal cortex, vs Unlabelled THK5351
[6] = AD1, Insula, vs Unlabelled PBB3
[7] = AD1, Insula, vs Unlabelled T807
[8] = AD1, Temporal cortex, vs Unlabelled PBB3
[9] = AD1, Temporal cortex, vs Unlabelled T807
[10] = AD1, Temporal cortex, vs Unlabelled THK5351
[11] = AD2, Basal ganglia, vs Unlabelled PBB3
[12] = AD2, Basal ganglia, vs Unlabelled T807
[13] = AD2, Basal ganglia, vs Unlabelled THK5351
[14] = AD2, Frontal cortex, vs Unlabelled PBB3
[15] = AD2, Frontal cortex, vs Unlabelled T807
[16] = AD2, Frontal cortex, vs Unlabelled THK5351
[17] = AD2, Insula, vs Unlabelled PBB3
[18] = AD2, Insula, vs Unlabelled T807
[19] = AD2, Insula, vs Unlabelled THK5351
[20] = AD2, Temporal cortex, vs Unlabelled PBB3
[21] = AD2, Temporal cortex, vs Unlabelled T807
[22] = AD2, Temporal cortex, vs Unlabelled THK5351
[23] = AD3, Basal ganglia, vs Unlabelled PBB3
[24] = AD3, Basal ganglia, vs Unlabelled T807
[25] = AD3, Basal ganglia, vs Unlabelled THK5351
[26] = AD3, Frontal cortex, vs Unlabelled PBB3
[27] = AD3, Frontal cortex, vs Unlabelled T807
[28] = AD3, Frontal cortex, vs Unlabelled THK5351
[29] = AD3, Insula, vs Unlabelled PBB3
[30] = AD3, Insula, vs Unlabelled T807
[31] = AD3, Insula, vs Unlabelled THK5351
[32] = AD3, Temporal cortex, vs Unlabelled PBB3
[33] = AD3, Temporal cortex, vs Unlabelled T807
[34] = AD3, Temporal cortex, vs Unlabelled THK5351

## [11CH3]Nc1ccc(/C=C/C=C/c2nc3ccc(O)cc3s2)cn1 [^11C-PBB3, (5-((1E,3E)-4-(6-[^11C]methylamino)pyridin-3-yl)buta-1,3-dien-1-yl)benzo[d]thiazol-6-ol]
[1]
  % of specific binding: 50%
  NSP Binding: 2849
  Specific Binding: 2796
  Total Binding: 5645
[2]
  % of specific binding: 20%
  NSP Binding: 3201
  Specific Binding: 802
  Total Binding: 4004
[3]
  % of specific binding: 51%
  NSP Binding: 3317
  Specific Binding: 3433
  Total Binding: 6750
[4]
  % of specific binding: 17%
  NSP Binding: 3919
  Specific Binding: 782
  Total Binding: 4701
[5]
  % of specific binding: 22%
  NSP Binding: 1579
  Specific Binding: 439
  Total Binding: 2018
[6]
  % of specific binding: 45%
  NSP Binding: 3353
  Specific Binding: 2690
  Total Binding: 6043
[7]
  % of specific binding: 13%
  NSP Binding: 3842
  Specific Binding: 566
  Total Binding: 4409
[8]
  % of specific binding: 41%
  NSP Binding: 3425
  Specific Binding: 2352
  Total Binding: 5777
[9]
  % of specific binding: 4%
  NSP Binding: 4009
  Specific Binding: 178
  Total Binding: 4187
[10]
  % of specific binding: 28%
  NSP Binding: 1569
  Specific Binding: 596
  Total Binding: 2164
[11]
  % of specific binding: 47%
  NSP Binding: 3052
  Specific Binding: 2700
  Total Binding: 5752
[12]
  % of specific binding: 21%
  NSP Binding: 2790
  Specific Binding: 751
  Total Binding: 3541
[13]
  % of specific binding: 19%
  NSP Binding: 1517
  Specific Binding: 367
  Total Binding: 1884
[14]
  % of specific binding: 51%
  NSP Binding: 3051
  Specific Binding: 3187
  Total Binding: 6238
[15]
  % of specific binding: 15%
  NSP Binding: 3252
  Specific Binding: 595
  Total Binding: 3847
[16]
  % of specific binding: 17%
  NSP Binding: 1619
  Specific Binding: 341
  Total Binding: 1960
[17]
  % of specific binding: 48%
  NSP Binding: 3100
  Specific Binding: 2827
  Total Binding: 5927
[18]
  % of specific binding: 21%
  NSP Binding: 2838
  Specific Binding: 748
  Total Binding: 3585
[19]
  % of specific binding: 20%
  NSP Binding: 1580
  Specific Binding: 400
  Total Binding: 1979
[20]
  % of specific binding: 59%
  NSP Binding: 2988
  Specific Binding: 4222
  Total Binding: 7210
[21]
  % of specific binding: 12%
  NSP Binding: 3425
  Specific Binding: 448
  Total Binding: 3874
[22]
  % of specific binding: 36%
  NSP Binding: 1506
  Specific Binding: 831
  Total Binding: 2336
[23]
  % of specific binding: 48%
  NSP Binding: 2989
  Specific Binding: 2786
  Total Binding: 5775
[24]
  % of specific binding: 13%
  NSP Binding: 2721
  Specific Binding: 422
  Total Binding: 3143
[25]
  % of specific binding: 23%
  NSP Binding: 1577
  Specific Binding: 481
  Total Binding: 2058
[26]
  % of specific binding: 56%
  NSP Binding: 3132
  Specific Binding: 4039
  Total Binding: 7171
[27]
  % of specific binding: 21%
  NSP Binding: 3247
  Specific Binding: 879
  Total Binding: 4125
[28]
  % of specific binding: 27%
  NSP Binding: 1832
  Specific Binding: 678
  Total Binding: 2511
[29]
  % of specific binding: 46%
  NSP Binding: 3401
  Specific Binding: 2848
  Total Binding: 6249
[30]
  % of specific binding: 8%
  NSP Binding: 3261
  Specific Binding: 294
  Total Binding: 3555
[31]
  % of specific binding: 18%
  NSP Binding: 1815
  Specific Binding: 405
  Total Binding: 2220
AD3, Temporal cortex, 0.4nM
  Total Binding: 6400 pmol/mm^3
[32]
  % of specific binding: 50%
  NSP Binding: 3203
  Specific Binding: 3207
  Total Binding: 6409
[33]
  % of specific binding: 11%
  NSP Binding: 3217
  Specific Binding: 396
  Total Binding: 3612
[34]
  % of specific binding: 18%
  NSP Binding: 1818
  Specific Binding: 397
  Total Binding: 2215
